The source of these data is publication doi:10.1101/2024.08.19.608619, “Discovery of potent SARS-CoV-2 nsp3 macrodomain inhibitors uncovers lack of translation to cellular antiviral response” (bioRxiv, 2024).

In series [1] the target is T1, SARS-CoV-2 nsp3-mac1 (Severe acute respiratory syndrome coronavirus 2, UniProt P0DTD1). Kind of series: biochemical. The format is biochemical. Particulars: SARS-CoV-2 nsp3 macrodomain TR-FRET single point, concentration 50.0 uM. (TR-FRET usually uses a lanthanide donor and a delayed reading to cut background.)
A short description of series [2]: In vitro kinetic solubility.
Series [3] has as its target T1, SARS-CoV-2 nsp3-mac1. As to the kind of experiment: biochemical. Set-up: SARS-CoV-2 nsp3 macrodomain TR-FRET single point, per cent inhibition, n=2.
For series [4], the target named is T1, SARS-CoV-2 nsp3-mac1. Kind of series: biochemical. The settings on record: for hill_slope: TR-FRET dose response curve fit; for perc_max_measured: highest measured response; for perc_min_measured: lowest measured response.
The nature of series [5]: Permeability Papp (AB) MDR1/MDCKII. The settings on record: In vitro MDR1-MDCKII permeability, mean; for perc_recovery_a_to_b_mean: recovery A to B.
Series [6] can be described thus: Hepatic microsomal stability, MLM. The format is in vitro ADME.
A short description of series [7]: Hepatic microsomal stability, HLM. The format is in vitro ADME, human. The settings on record: In vitro human liver microsomal stability; for perc_remaining_no_cofactor: no cofactor; for microsomal CLint: liver microsomes. On the technique in general: Microsomes from liver hold many membrane-bound enzymes, among them those of drug oxidation.
A further series can be described thus: LogD. The settings on record: pH 7.4.
Another series relates to MDR1. Kind of series: Permeability Papp (AB) MDR1/MDCKII. The settings on record: dog, MDCK-MDR1, papp_a_to_b_mean, In vitro MDR1-MDCKII permeability, A to B, mean.
Setting [8] is: In vitro kinetic solubility, ph 7.4.
[9] abbreviates: TR-FRET dose response, supplement, read-out: ic50.
The mark [10] stands for this setting: In vitro mouse liver microsomal stability.
Setting [11] is: In vitro mouse liver microsomal stability; no cofactor.
Setting [12] is: In vitro mouse liver microsomal stability, no cofactor.

Each structure is given as a SMILES string. Converted amounts (≈) assume the structure as drawn. “And” between values parts separate entries of the source, which are not always exact repeats. Equal entries are not always repeated. Where two headings read alike, the source gives them in different places. Some results are limits rather than exact numbers.

In general, IC50 refers to the concentration that gives 50% inhibition. What is called solubility is the concentration that dissolves in the medium under given conditions. A word on the microsomal CLint: it is the capacity of the preparation to metabolise the compound, expressed as a volume cleared per time. By Papp A→B is commonly meant how fast a substance crosses the layer from the apical side. High values mean fast passage, low ones slow passage.

In the case of `O=C(Nc1ccccc1)Nc1ccc(C(=O)NC2c3cccc(O)c3CC2C(=O)O)cc1` (stereo not shown) [ASAP-0000132], the perc_inhibition_mean on SARS-CoV-2 nsp3-mac1 [1] is reported as 99.903%. In series [2] (setting [8]), the solubility_mean was 319 µM (≈ 138 µg/mL). The inhibition at 50 µM at SARS-CoV-2 nsp3-mac1 [3] (read-out: perc_inhibition_mean, batch_name=ASAP-0000132-001) stood at 99.9%. This compound also displayed a hill_slope at SARS-CoV-2 nsp3-mac1 [4] of 1.06. On SARS-CoV-2 nsp3-mac1 [4] (TR-FRET dose response), the perc_max_measured was determined as 99.438% and the perc_min_measured was -1.931%. The pic50 on SARS-CoV-2 nsp3-mac1 [4] (TR-FRET dose response, supplement) stood at 5.991. For the same compound, the IC50 on SARS-CoV-2 nsp3-mac1 [4] (setting [9]) is 1020 nM. In addition, the papp_a_to_b_mean in series [5] (A to B) stood at 0.7 ×10⁻⁶ cm/s. In series [5], this compound yielded a perc_recovery_a_to_b_mean of 91.0%. In addition, in series [6] (setting [10]), the clint is 2.0 µL/min/mg, the perc_remaining is recorded as 111.0% and the t_half came out at 1066.4 min. In addition, the perc_remaining_no_cofactor in [6] (setting [11]) was found to be 99.0%. For the same compound, in series [7], the clint was 9.0 µL/min/mg, the perc_remaining worked out at 123.0%, the t_half was 187.2 min and the perc_remaining_no_cofactor came out at 96.0%. In addition, the logd in the series “LogD” (In vitro LogD) turned out to be 0.12.

`OC[C@@H](Nc1ncnc2[nH]c(I)cc12)c1ccccc1` [ASAP-0000197] registered a perc_inhibition_mean on SARS-CoV-2 nsp3-mac1 [1] of 26.134%. Besides, the inhibition at 50 µM at SARS-CoV-2 nsp3-mac1 [3] (read-out: perc_inhibition_mean, batch_name=ASAP-0000197-001) came out at 26.1%. In addition, at SARS-CoV-2 nsp3-mac1 [4], the hill_slope was found to be 1.082. Also, on SARS-CoV-2 nsp3-mac1 [4] (TR-FRET dose response), the perc_max_measured was 42.06% and the perc_min_measured was -3.652%. Moreover, the IC50 at SARS-CoV-2 nsp3-mac1 [4] (setting [9]) was more than 124000 nM.

For `CC(C)C(Nc1ncnc2[nH]ccc12)c1ccc2c(c1)NC(=O)CO2` (stereo not shown) [ASAP-0008431], the solubility_mean in series [2] (setting [8]) was found to be 374 µM (≈ 126 µg/mL). Further, the concentration in solution in series [2] (pH 7.4, solubility_mean, In vitro kinetic solubility, ph 7.4) (solubility) was 389 µM (≈ 131 µg/mL). Further, at SARS-CoV-2 nsp3-mac1 [4] (HTRF IC50, Figure 4A, racemic mixture), the IC50 was determined as 390 nM. The perc_recovery_a_to_b_mean in [5] is 86.0% and 98.9%. Besides, the clint in series [6] (setting [10]) turned out to be 78.0 µL/min/mg; in [7] it was 31.0 µL/min/mg. Besides, the perc_remaining in series [6] (setting [10]) was 26.0% and 27.0%; in [7] it was 73.0% and 56.0%. The t_half was 20.9 min and 21.4 min in series [6] (setting [10]); 79.0 min and 54.3 min in series [7]. For the same compound, the perc_remaining_no_cofactor in [6] (setting [12]) was 110.0%; in [6] (setting [11]) it was 93.0%; in [7] it was 105.0% and 92.0%. For the same compound, the microsomal CLint was 80 µL/min/mg in series [6] (mouse, liver microsomes, In vitro mouse liver microsomal stability) and 21 µL/min/mg in [7] (human). Further, the logd in the series “LogD” (pH 7.4, logd, In vitro LogD) was 2.2.

Consider `CNC(=O)Cn1cc(-c2cc3c(NC(c4ccc5c(c4)OCCO5)C(C)C)ncnc3[nH]2)cn1` (stereo not shown) [ASAP-0008565], for which the solubility in series [2] (pH 7.4) came to 289 µM (≈ 133 µg/mL). Besides, the IC50 against SARS-CoV-2 nsp3-mac1 [4] (IC50, nsp3-mac1 activity, Figures 1-3 and text) was found to be 250 nM. Moreover, on SARS-CoV-2 nsp3-mac1 [4] (relative to ASAP-000450), the “increase in potency relative to the starting point” value stood at 10 x. The compound also had a perc_recovery_a_to_b_mean in series [5] of 94.1%. In the series on MDR1, the Papp A→B worked out at 1.94 ×10⁻⁶ cm/s. In [6] (setting [10]), the perc_remaining was 46.0% and the t_half was 35.7 min. Besides, the perc_remaining_no_cofactor in series [6] (setting [12]) was 90.0%. In series [6] (liver microsomes; In vitro mouse liver microsomal stability), this compound showed a microsomal CLint of 47 µL/min/mg. For the same compound, in series [7], the perc_remaining stood at 14.0%, the t_half amounted to 14.0 min, the perc_remaining_no_cofactor is listed as 92.0% and the intrinsic clearance (microsomal CLint) stood at 119 µL/min/mg. Besides, the logd in “LogD” stood at 2.9.
